Data: article PMC10894281, “Kinetic characterization of human mRNA guanine-N7 methyltransferase” (Scientific Reports, 2024)
Values belong to the compound of their own block, whether it stands above or below them.

Tests used:
Format in all cases: biochemical
[1] = target: T1, RNA cap guanine-N7 methyltransferase (hRNMT) (Homo sapiens, UniProt O43148); test: radiometric scintillation proximity methyltransferase assay (3H-SAM, biotinylated RNA); product inhibition; set-up: gene RNMT; RNMT (1–476), full length
[2] = target: T1, RNA cap guanine-N7 methyltransferase (hRNMT); test: steady-state kinetics, apparent Km by radiometric scintillation proximity assay; set-up: gene RNMT; RNMT (1–476), full length; also catalytic domain RNMT (123–476); conditions: read-out: Km^app
[3] = target: T1, RNA cap guanine-N7 methyltransferase (hRNMT); test: radiometric scintillation proximity methyltransferase assay (3H-SAM, biotinylated RNA); set-up: gene RNMT; RNMT (1–476), full length

T1 sequence (O43148 whole entry, the tested form may be a part): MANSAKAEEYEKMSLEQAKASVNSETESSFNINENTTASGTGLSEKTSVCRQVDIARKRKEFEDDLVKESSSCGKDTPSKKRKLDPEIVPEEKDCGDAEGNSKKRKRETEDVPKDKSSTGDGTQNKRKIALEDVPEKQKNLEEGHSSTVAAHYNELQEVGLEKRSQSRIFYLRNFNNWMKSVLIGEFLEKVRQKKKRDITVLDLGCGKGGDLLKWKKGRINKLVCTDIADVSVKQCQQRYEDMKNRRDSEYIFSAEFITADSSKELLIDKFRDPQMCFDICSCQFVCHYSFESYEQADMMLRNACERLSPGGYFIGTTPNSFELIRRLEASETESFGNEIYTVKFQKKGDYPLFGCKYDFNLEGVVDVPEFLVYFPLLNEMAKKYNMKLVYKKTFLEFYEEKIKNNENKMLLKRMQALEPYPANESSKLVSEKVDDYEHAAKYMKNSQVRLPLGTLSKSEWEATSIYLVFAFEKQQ

Compound: Nc1ncnc2c1ncn2[C@@H]1O[C@H](CSCC[C@H](N)C(=O)O)[C@@H](O)[C@H]1O [SAH]
IC50 [1]: 389 ± 110 nM

Km [2]: 0.19 ± 0.038 µM
Compound: C[S+](CC[C@H](N)C(=O)[O-])C[C@H]1O[C@@H](n2cnc3c(N)ncnc32)[C@H](O)[C@@H]1O (stereo partly shown) [SAM]

Compound: Nc1ncnc2c1ncn2[C@@H]1O[C@H](C[C@@H](N)CC[C@H](N)C(=O)O)[C@@H](O)[C@H]1O [Sinefungin]
IC50 [3]: 3 ± 0.6 nM

IC50 ([3]; read-out: IC50): 5 ± 0.4 nM
Compound: Cc1ccc(C(=O)Nc2ccc(S(=O)(=O)O)c3cc(S(=O)(=O)O)cc(S(=O)(=O)O)c23)cc1NC(=O)c1cccc(NC(=O)Nc2cccc(C(=O)Nc3cc(C(=O)Nc4ccc(S(=O)(=O)O)c5cc(S(=O)(=O)O)cc(S(=O)(=O)O)c45)ccc3C)c2)c1 [Suramin]
